Among the test systems are CCRF-CEM leukemia; SF-295 CNS; MDA-MB-435; U251 CNS; OVCAR-8 ovarian; COLO 205 colon; IGROV1 ovarian; A549 NSCLC; OVCAR-4 ovarian; SK-MEL-5 melanoma; MCF7 breast; MDA-MB-231 breast.
What all share (assay): DTP human tumour cell line panel, 48 h

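Assay format: 96-well plates, 48-hour exposure. TGI denotes the concentration required for complete inhibition of growth.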

`O=C(O)CCC(NC(=O)c1ccc(CNc2nc3cc(C(F)(F)F)ccc3nc2C(=O)O)cc1)C(=O)O` (stereo not given): the TGI with CCRF-CEM leukemia, in the test with SF-295 CNS, in the test on MDA-MB-435, with U251 CNS, in the test with OVCAR-8 ovarian and in the test on COLO 205 colon was greater than 100 µM throughout. Further, the TGI in the test on IGROV1 ovarian, in the test with A549 NSCLC and in the test on OVCAR-4 ovarian was greater than 100 µM each time.
With `CCOC(=O)c1ccn2c(c1)c(C#N)c1nc3ccccc3nc12`, the total growth inhibition concentration (TGI) – broadly, the concentration giving total growth inhibition – in the test on CCRF-CEM leukemia is 68.4 µM; in the test on U251 CNS, greater than 100 µM; in the test with OVCAR-8 ovarian, greater than 100 µM; in the test on COLO 205 colon, greater than 100 µM; in the test with IGROV1 ovarian it was 59.8 µM; in the test with A549 NSCLC it was greater than 100 µM. Further, the TGI in the test on SK-MEL-5 melanoma and in the test with OVCAR-4 ovarian was greater than 100 µM each time.
`C/C=C1/C(=Cc2[nH]c(C=c3[nH]/c(=C/C4=NC(=O)C(CC)=C4C)c(C)c3CCC(=O)O)c(CCC(=O)O)c2C)NC(=O)C1C` (stereo not given): the TGI with CCRF-CEM leukemia was greater than 50 µM; with SF-295 CNS it was 18.5 µM; in the test on U251 CNS, greater than 50 µM; in the test on OVCAR-8 ovarian, 5 µM; with COLO 205 colon it was greater than 50 µM; in the test on IGROV1 ovarian, greater than 50 µM. Further, the values for the TGI with A549 NSCLC and in the test on OVCAR-4 ovarian were 27 µM and greater than 50 µM, respectively.
Turning to `COC(=O)/C(=N\N)C(C(=O)C(=O)Nc1nc(=S)[nH][nH]1)c1nc2ccc([N+](=O)[O-])cc2[nH]c1=O` (stereo not given), the TGI with CCRF-CEM leukemia, with SF-295 CNS, in the test on U251 CNS, in the test on OVCAR-8 ovarian, with COLO 205 colon and in the test with IGROV1 ovarian was greater than 100 µM throughout. The TGI with A549 NSCLC, with SK-MEL-5 melanoma and in the test with OVCAR-4 ovarian was greater than 100 µM each time.
In the case of `C/C(=C\CC/C=C(\C)CC/C=C(\C)CCC1SC1(C)C)CC/C=C(\C)CCC1OC1(C)C` (stereo not given), the total growth inhibition concentration (TGI) in the test on CCRF-CEM leukemia, with SF-295 CNS, with U251 CNS, in the test on OVCAR-8 ovarian, with COLO 205 colon and in the test on IGROV1 ovarian was greater than 100 µM throughout. The concentration for total growth inhibition (TGI) in the test with A549 NSCLC, with SK-MEL-5 melanoma and in the test on OVCAR-4 ovarian was greater than 100 µM throughout.
In the case of `CC12CCC(=O)[C@@]1(C)CCCC2O` (stereo not given in full), the TGI with CCRF-CEM leukemia, with SF-295 CNS, in the test with MCF7 breast, with U251 CNS, in the test with OVCAR-8 ovarian and in the test on COLO 205 colon was greater than 100 µM in each case. Further, the TGI with MDA-MB-231 breast, in the test on IGROV1 ovarian, in the test with A549 NSCLC, in the test with SK-MEL-5 melanoma and with OVCAR-4 ovarian was greater than 100 µM throughout.
As for `COc1cc2c(cc1OC)[C@H]1C(COC(=O)Nc3ccccc3)CN1CC2` (stereo not given in full), the concentration for total growth inhibition (TGI) in the test with CCRF-CEM leukemia, in the test with SF-295 CNS, in the test on U251 CNS, with OVCAR-8 ovarian, in the test with COLO 205 colon and in the test with IGROV1 ovarian was greater than 100 µM throughout. Also, the TGI in the test with A549 NSCLC, with SK-MEL-5 melanoma and in the test with OVCAR-4 ovarian was greater than 100 µM throughout.
`Cc1cc(C)c(C(=O)C(C)C(c2ccccc2)c2ccc(Cl)cc2)c(C)c1` (stereo not given): the TGI with CCRF-CEM leukemia, in the test on SF-295 CNS, in the test with U251 CNS, with OVCAR-8 ovarian, in the test on COLO 205 colon and with IGROV1 ovarian was greater than 100 µM in each case. Moreover, the concentration for total growth inhibition (TGI) in the test on A549 NSCLC, in the test with SK-MEL-5 melanoma and with OVCAR-4 ovarian was greater than 100 µM throughout.
As for `CC(=O)OCC1=CC2CCC3C(C)(CCC[C@]3(C)COC(C)=O)C23CC[C@H]1C3` (stereo not given in full), the TGI was 93.3 µM in the test on CCRF-CEM leukemia; greater than 100 µM in the test with SF-295 CNS; greater than 100 µM with U251 CNS; greater than 100 µM in the test with OVCAR-8 ovarian; 49.3 µM in the test with COLO 205 colon; greater than 100 µM with IGROV1 ovarian. Besides, the concentration for total growth inhibition (TGI) with A549 NSCLC was greater than 100 µM; in the test on SK-MEL-5 melanoma, 58.8 µM; in the test on OVCAR-4 ovarian, greater than 100 µM.
On to `COC1(C)CNCC(C)(C)NC(=O)C(C)(OC)CNCC(C)(C)NC1=O` (stereo not given), for which the concentration for total growth inhibition (TGI) in the test with CCRF-CEM leukemia, with SF-295 CNS, in the test with U251 CNS, in the test with OVCAR-8 ovarian, in the test on COLO 205 colon and in the test with IGROV1 ovarian was greater than 100 µM in each case. The TGI in the test on A549 NSCLC, in the test with SK-MEL-5 melanoma and with OVCAR-4 ovarian was greater than 100 µM throughout.
For `O=S(=O)(CF)OCCCCOS(=O)(=O)CF`, the TGI in the test on CCRF-CEM leukemia, in the test on SF-295 CNS, with U251 CNS, with OVCAR-8 ovarian, with COLO 205 colon and in the test on IGROV1 ovarian was greater than 100 µM in each case. Moreover, in the test on SK-MEL-5 melanoma, the TGI is greater than 100 µM.
For the compound `COC(=O)C(C#N)C1NC(=O)c2ccccc21` (stereo not given), the TGI with CCRF-CEM leukemia, in the test on SF-295 CNS, with U251 CNS, with OVCAR-8 ovarian, with COLO 205 colon and in the test on IGROV1 ovarian was greater than 100 µM each time. Besides, the TGI in the test with A549 NSCLC, with SK-MEL-5 melanoma and in the test with OVCAR-4 ovarian was greater than 100 µM each time.
`CCCCCCCCCCCCCCCCCCOCC(O)CO` (stereo not given): the TGI in the test with CCRF-CEM leukemia was greater than 22.5 µM; in the test on SF-295 CNS it was greater than 25 µM; in the test with MCF7 breast, greater than 25 µM; with U251 CNS, greater than 25 µM; with OVCAR-8 ovarian it was greater than 25 µM; in the test on COLO 205 colon it was greater than 25 µM. The TGI in the test with IGROV1 ovarian was greater than 23.7 µM; in the test with A549 NSCLC it was 5.32 µM; in the test with SK-MEL-5 melanoma, 3.65 µM; in the test on OVCAR-4 ovarian, greater than 25 µM.
As for `CC(=O)OCC1OC(n2c(O)c(N=NC(N)=S)c3ccc([N+](=O)[O-])cc32)C(OC(C)=O)C1OC(C)=O` (stereo not given), the TGI in the test with CCRF-CEM leukemia was 64.8 µM; with SF-295 CNS, greater than 100 µM; in the test on U251 CNS it was 87.6 µM; in the test on OVCAR-8 ovarian, 43.1 µM; in the test with COLO 205 colon, greater than 100 µM; in the test on IGROV1 ovarian, greater than 100 µM. Besides, the TGI with A549 NSCLC was greater than 100 µM; in the test on SK-MEL-5 melanoma, greater than 100 µM; with OVCAR-4 ovarian, 43.3 µM.

These data come from PubChem BioAssay (NCI).
